# Assay results as given in patent publication US20200032125A1, “COMBINED USES OF A PHOSPHOROUS COMPOUND FOR IRON SULPHIDE DISSOLUTION AND BACTERIAL CONTROL” (RHODIA OPERATIONS, priority 2016, published 2020).
# Tested on: general heterotrophic bacteria (GHB)
# Settings: iron sulphide present; same level of THPS as the control
substance,measurement,value
tetrakis (hydroxymethyl) phosphonium sulphate [THPS],bacterial kill (reduction in colony forming units per ml) versus control sample without iron sulphide,bacterial kill is still achieved
